Results taken from ChEMBL document CHEMBL1201862, “PubChem BioAssay data set” (2004).
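Following 48 hours of exposure in 96-well plates, responses at five concentrations were used to interpolate endpoints linearly. The concentration for 50% growth inhibition is given as GI50.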 Activity calls are given as the source filed them. No stated cut-off is given here; in the data, active = GI50 up to about 1.1 µM and inactive = higher.

What was measured:
Assay in all cases: growth of human tumour cells (NCI), 48 h
[1] = system: TK-10
[2] = system: UACC-257
[3] = system: NCI-H522
[4] = system: K562
[5] = system: SW-620
[6] = system: NCI/ADR-RES
[7] = system: HCC 2998
[8] = system: HCT-116
[9] = system: BT-549
[10] = system: NCI-H23
[11] = system: PC-3
[12] = system: LOX IMVI
[13] = system: A549
[14] = system: OVCAR-5
[15] = system: Hs-578T
[16] = system: SF-539
[17] = system: COLO 205
[18] = system: SF-268
[19] = system: HL-60

| SMILES | GI50 [1] | GI50 [2] | GI50 [3] | GI50 [4] | GI50 [5] | GI50 [6] | GI50 [7] | GI50 [8] | GI50 [9] | GI50 [10] | GI50 [11] | GI50 [12] | GI50 [13] | GI50 [14] | GI50 [15] | GI50 [16] | GI50 [17] | GI50 [18] | GI50 [19] |
| --- | --- | --- | --- | --- | --- | --- | --- | --- | --- | --- | --- | --- | --- | --- | --- | --- | --- | --- | --- |
| Cl/C(=N\c1cccc2ccccc12)N(c1ccccc1)c1ccccc1 | 72.3 µM (inactive) | 70 µM (inactive) | 41.2 µM (inactive) | 31.8 µM (inactive) | 92.7 µM (inactive) | > 100 µM (inactive) | 19.7 µM (inactive) | 73.5 µM (inactive) | > 100 µM (inactive) | > 100 µM (inactive) | 44.6 µM (inactive) | > 100 µM (inactive) | 56.5 µM (inactive) | > 100 µM (inactive) | > 100 µM (inactive) | – | – | – | – |
| CNC/C(Cl)=N/S(=O)(=O)c1ccc(C)cc1 | 12.7 µM (inactive) | 9.27 µM (inactive) | 6.58 µM (inactive) | 36.1 µM (inactive) | 9.16 µM (inactive) | 26.1 µM (inactive) | 4.74 µM (inactive) | 8.09 µM (inactive) | 16.3 µM (inactive) | 7.83 µM (inactive) | 9.59 µM (inactive) | 7.16 µM (inactive) | 13.2 µM (inactive) | 21 µM (inactive) | 28.8 µM (inactive) | 9.71 µM (inactive) | 17.5 µM (inactive) | 19.5 µM (inactive) | – |
| CC(=O)c1c(C)n(C)c2c1nnc1ccccc12 | 29.4 µM (inactive) | > 100 µM (inactive) | > 100 µM (inactive) | – | 44.5 µM (inactive) | 46.5 µM (inactive) | 85.5 µM (inactive) | 33.7 µM (inactive) | 71.3 µM (inactive) | 37.5 µM (inactive) | 59.3 µM (inactive) | 43 µM (inactive) | 32.2 µM (inactive) | – | 32.6 µM (inactive) | 34.8 µM (inactive) | 30.9 µM (inactive) | 34.1 µM (inactive) | – |
| COc1ccc(C[n+]2cccc(O)c2)cc1 | > 100 µM (inactive) | – | – | > 100 µM (inactive) | > 100 µM (inactive) | > 100 µM (inactive) | > 100 µM (inactive) | > 100 µM (inactive) | > 100 µM (inactive) | > 100 µM (inactive) | > 100 µM (inactive) | – | > 100 µM (inactive) | > 100 µM (inactive) | > 100 µM (inactive) | > 100 µM (inactive) | – | > 100 µM (inactive) | > 100 µM (inactive) |
| C=CC(=O)N1C/C(=C\c2ccc(N(C)C)cc2)C(=O)/C(=C/c2ccc(N(C)C)cc2)C1 | > 100 µM (inactive) | > 100 µM (inactive) | – | 8.97 µM (inactive) | 40.8 µM (inactive) | > 100 µM (inactive) | > 100 µM (inactive) | 40.6 µM (inactive) | 73.5 µM (inactive) | > 100 µM (inactive) | 34 µM (inactive) | 11.2 µM (inactive) | > 100 µM (inactive) | > 100 µM (inactive) | 30 µM (inactive) | 26.2 µM (inactive) | > 100 µM (inactive) | 67.3 µM (inactive) | – |
| COc1ccc(C(CC(=O)C(C)(C)CN2CCCCC2)SCCS(=O)(=O)O)cc1 (centres undefined) | 45.7 µM (inactive) | 34.4 µM (inactive) | 21.5 µM (inactive) | 22.9 µM (inactive) | 32.6 µM (inactive) | 35.4 µM (inactive) | 67.3 µM (inactive) | 29 µM (inactive) | 45.7 µM (inactive) | 25.1 µM (inactive) | 53.7 µM (inactive) | – | 41.4 µM (inactive) | 21.3 µM (inactive) | 55.3 µM (inactive) | 19.9 µM (inactive) | 28.4 µM (inactive) | – | 41.4 µM (inactive) |
| Cc1ccc2c(c1)NC(=O)CCSSCCC(=O)N2 | > 100 µM (inactive) | > 100 µM (inactive) | > 100 µM (inactive) | > 100 µM (inactive) | > 100 µM (inactive) | > 100 µM (inactive) | – | > 100 µM (inactive) | > 100 µM (inactive) | > 100 µM (inactive) | > 100 µM (inactive) | > 100 µM (inactive) | > 100 µM (inactive) | > 100 µM (inactive) | > 100 µM (inactive) | > 100 µM (inactive) | > 100 µM (inactive) | > 100 µM (inactive) | > 100 µM (inactive) |
| O=C1/C(=C\c2ccccc2)C(NC2CCCCC2)c2ccccc21 (centres undefined) | 1.29 µM (inactive) | 1.29 µM (inactive) | 0.578 µM (active) | 0.46 µM (active) | 0.444 µM (active) | 3.65 µM (inactive) | – | 0.959 µM (active) | 2.36 µM (inactive) | 0.76 µM (active) | 1.78 µM (inactive) | 1.66 µM (inactive) | 4.05 µM (inactive) | 4.17 µM (inactive) | 3.18 µM (inactive) | 1 µM (active) | 1.55 µM (inactive) | 3.46 µM (inactive) | 0.883 µM (active) |
